Test results: patent publication US5840729A (priority 1995, dated 1998)
Read-outs that look alike come from different tables or passages of the source. One block for each compound: values may come before it.

How the values were obtained:
rats = experiment: Water maze learning (scopolamine-induced impairment); type: in vivo, rat; settings: for effect on scopolamine-induced learning impairment: water maze, summary statement; for reversal of scopolamine-induced impairment: scopolamine 1.2 mg/kg
Description: In the water maze spatial learning model, rats are required to use distal spatial cues around a circular water tank to navigate to a hidden platform.
Rats were trained in a 120 -cm diameter water-filled tank to locate a hidden platform submerged just below the surface of the water. The location of the platform remained constant, but for each trial, the animal was required to swim from one of three different starting locations around the edge of the tank. There were no proximal cues in the tank, so the animal had to use a spatial mapping strategy using the distal cues around the room to navigate to the hidden platform. A computerized video tracking system allowed automated acquisition of the data. The animals were given 12 successive training trials during the single training day, using the methods of O. Buresova, et al., Differential Effects Of Cholinergic Blockade On Performance Of Rats In The Water Tank Navigation Task And In A Radial Water Maze, Behavioral Neuroscience, 100, 476-482 (1986). […] After the animal found or was placed on the platform, it was allowed to stay there for 30 seconds. The next trial commenced immediately following the 30 second stay on the platform. Latency to locate the platform was recorded for each trial.
Separate treatment groups of five animals each were run in each experiment. The VEH--VEH groups received vehicle (distilled water plus Tween) i.p. 40 minutes prior to the first trial and vehicle i.p. 20 min. prior to the first trial. The VEH-SCOP groups received vehicle i.p. at 40 minutes and scopolamine HBr i.p. at 20 minutes. The MDL-SCOP groups received (R)-1,3-dipropyl-8-(1-phenylpropyl)-xanthine or 3,7-dihydro-8[(R)-1-methyl-2-phenylethyl]1,3-dipropyl-1H-purine-2,6-dione i.p. at 40 minutes and scopolamine HBr i.p. at 20 minutes.
The latency scores for each animal were averaged into four blocks of three trials each (one trial from each starting location). A one-way ANOVA comparing the treatment groups was computed on the scores for each trial block. If the overall ANOVA was statistically significant, comparisons between individual treatment groups were made with Fisher's PLSD test.

[1] = system: Type III phosphodiesterase; experiment: Type III phosphodiesterase activity; type: biochemical
[2] = system: Type IV phosphodiesterase; experiment: Type IV phosphodiesterase activity; type: biochemical
A1 receptor = A1 receptor mediated decrease in heart rate produced by adenosine in the anesthetized guinea pig; type: in vivo
[3] = system: isolated guinea pig trachea; experiment: Isolated guinea pig trachea, contraction produced by N6-cyclohexyl-adenosine; type: cell-based
hippocampal CA1 neurons = experiment: Hippocampal long-term potentiation, in vitro slice (CA1 population spike); type: cell-based, male Sprague-Dawley rats; settings: for LTP stabilized level following tetanus / time course of LTP following tetanus: primed burst tetanus; for population spike before and after induction of LTP: hippocampal CA1 neurons
Method: Slices were prepared from male Sprague-Dawley rats. […] Briefly, the hippocampus was rapidly and gently dissected over ice. 400 μ Sections were made with a […] tissue chopper and incubated on the interface of 34° C. […] A recording electrode was placed in the CA1 region of the hippocampus and a stimulating electrode was positioned in the stratum radiatum of the CA3 region of this same slice. […] The signal form the CA1 cell body layer was amplified, filtered (1 Hz-4 KHz), and monitored on an oscilloscope. The evoked waveform was also digitized using a Computerscope A/D board (RC Electronics, Inc., Santa Barbara, Calif.) and stored for analysis using Neuroscope software (Levin and Associates, Denver, Colo.) running on an IBM-AT. In order to insure the viability of the slice, "minimal viability criteria" were established. […] Only preparations that met these three criteria were used. Twenty or more control population spikes were obtained to establish a baseline (at least 10 minutes). In most slices concentrated drug solutions were then diluted into the media for a 20 minute period to establish effects on the baseline population spike. […] One 100 μsec pulse was followed by 4 similar pulses 170, 180, 190, 200 msec later. Drug superfusion was continuous throughout the experiment. […] The compounds were dissolved in DMSO and diluted 1:400 into the perfusion media. […] Each pop spike waveform was digitized, stored, and analyzed by the Neuroscope software. Pop spike amplitude was determined for each waveform and these amplitudes were normalized to pre-tetanus levels. Results were expressed as percent change from this control level and plotted vs. time.

adenosine A2 receptor = biological target: T1, adenosine A2 receptor (Rattus norvegicus, UniProt P30543); experiment: A2 receptor affinity: displacement of [3H]NECA binding in rat brain striatum membranes; settings: Table 1
T1 construct: tissue Charles River (animals); host or cells: striatal membranes of young male rats (C-D strain)
Method: See R. R. Bruns, et al., Characterization of the A-2Adenosine Receptor Labeled by [3H]NECA in Rat Striatal Membranes, Mol. Pharmacol., 29, 331-346 (1986). Young male rats (C-D strain), obtained from Charles River, were killed by decapitation and the brain was removed. Membranes for ligand binding were isolated from rat brain striatum. The tissue was homogenized in 20 vol ice-cold 50 mM Tris-HC1 buffer (pH 7.7) using a polytron (setting for 6 to 20 seconds). The homogenate was centrifuged at 50,000×g for 10 minutes at 4° C. The pellet was again homogenized in a polytron in 20 vol of buffer, and centrifuged as before. The pellet was finally resuspended in 40 vol of 50 mM Tris-HC1 (pH 7.7) per gram of original wet weight of tissue.
Incubations were carried out at 25° C. for 60 minutes. Each tube was filtered through GF/B glass fiber filters using a vacuum. The filters were rinsed two times with 5 ml of the ice-cold buffer. […] The filters were counted by liquid scintillation spectrometry.
Specific binding of [^3 H]NECA was measured as the excess over blanks run in the presence of 100 μM 2-chloroadenosine. Total membrane-bound radioactivity was about 2.5% of that added to the test tubes. […] Specific binding to membranes was about 50% of the total bound.

adenosine A1 receptor [4] = biological target: T2, adenosine A1 receptor (Rattus norvegicus, UniProt P25099)
T2 sequence (P25099 1-326): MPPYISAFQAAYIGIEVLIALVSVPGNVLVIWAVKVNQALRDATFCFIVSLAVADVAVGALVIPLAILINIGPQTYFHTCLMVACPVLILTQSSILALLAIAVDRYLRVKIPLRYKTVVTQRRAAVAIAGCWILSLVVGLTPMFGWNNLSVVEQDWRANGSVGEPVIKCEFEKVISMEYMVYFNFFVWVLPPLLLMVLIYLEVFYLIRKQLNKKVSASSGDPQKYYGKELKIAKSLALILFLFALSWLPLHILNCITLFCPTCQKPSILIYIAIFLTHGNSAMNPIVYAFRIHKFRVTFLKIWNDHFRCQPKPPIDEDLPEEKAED

adenosine A1 receptor [5] = biological target: T2, adenosine A1 receptor; experiment: biochemical
[6] = system: animal models of learning and memory; settings: G. Schingnitz et al. 1991; cited from earlier work
adenosine A1 receptor [7] = biological target: T2, adenosine A1 receptor; experiment: A1 receptor affinity: displacement of [3H]cyclohexyladenosine binding in rat brain membranes; settings: Table 1; ratio of A2 Ki to A1 Ki (selectivity)
adenosine A1 receptor [8] = biological target: T2, adenosine A1 receptor; parameters: Male Sprague-Dawley rats were sacrificed by decapitation and the membranes were isolated from whole animal brains; from tissue; host or cells: whole brain membranes of male Sprague-Dawley rats; settings: Dudley et al., 1992; Secrest et al.; cited from earlier work

T1 sequence (P30543 whole entry): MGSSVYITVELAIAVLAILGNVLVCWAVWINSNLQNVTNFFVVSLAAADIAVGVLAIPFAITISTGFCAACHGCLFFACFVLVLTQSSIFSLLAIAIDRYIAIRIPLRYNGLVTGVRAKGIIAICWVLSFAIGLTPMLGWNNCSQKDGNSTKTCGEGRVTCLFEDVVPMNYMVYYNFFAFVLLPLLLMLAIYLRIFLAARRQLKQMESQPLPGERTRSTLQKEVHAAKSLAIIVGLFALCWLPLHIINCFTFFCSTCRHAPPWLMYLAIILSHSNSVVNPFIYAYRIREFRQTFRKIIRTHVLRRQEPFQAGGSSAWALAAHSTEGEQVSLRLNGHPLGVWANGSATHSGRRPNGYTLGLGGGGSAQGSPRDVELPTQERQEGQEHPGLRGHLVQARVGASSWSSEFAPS

- Ki (adenosine A2 receptor): 12.9 µM
SMILES: CCCn1c(=O)c2nc([C@@H](C)c3ccccc3)[nH]c2n(CCC)c1=O [3,7-Dihydro-8-[(S)-1-phenylethyl]-1,3-dipropyl-1H-purine-2,6-dione]

- Ki (adenosine A2 receptor): 4.22 µM
SMILES: CCCn1c(=O)c2nc([C@H](C)c3ccccc3)[nH]c2n(CCC)c1=O [3,7-Dihydro-8-[(R)-1-phenylethyl]-1,3-dipropyl-1H-purine-2,6-dione]

- Ki (adenosine A2 receptor): 12.8 µM
SMILES: CCCn1c(=O)c2nc(C(CO)Cc3ccccc3)[nH]c2n(CCC)c1=O (racemic) [3,7-dihydro-8-[l-(hydroxymethyl)-2-phenylethyl]-1,3-dipropyl-1H-purine-2,6-dione]

- Ki (adenosine A2 receptor): 1.23 µM
SMILES: CCCn1c(=O)c2nc(C(CC)Cc3ccccc3)[nH]c2n(CCC)c1=O (racemic) [3,7-dihydro-8-[1-(phenylmethyl)propyl]-1,3-dipropyl-1H-purine-2,6-dione]

- Ki (adenosine A2 receptor): 4.9 µM
SMILES: CCCn1c(=O)c2nc(C(C)c3ccccc3)[nH]c2n(CCC)c1=O (racemic) [3,7-dihydro-8-(1-phenylethyl)-1,3-dipropyl-1H-purine-2,6-dione]

The next lines start with the compound.

SMILES: CN1[C@@H]2C[C@@H](OC(=O)[C@H](CO)c3ccccc3)C[C@H]1[C@@H]1O[C@@H]12 [scopolamine, reference compound]
- VEH-SCOP group versus VEH-VEH group (latency) (rats; scopolamine 1.2 mg/kg i.p., p<0.05): differed significantly from the VEH--VEH group (p<0.05)
- impairment of acquisition of the water maze task (rats; scopolamine, dose-dependent): dose-dependently impairs acquisition of the water maze task

SMILES: CCCn1c(=O)c2[nH]c([C@H](C)Cc3ccccc3)nc2n(CCC)c1=O [3,7-Dihydro-8-[(R)-1-methyl-2-phenylethyl]-1,3-dipropyl-1H-purine-2,6-dione]
- effect on Type III phosphodiesterase activity [1]: little effect
- effect on Type IV phosphodiesterase activity [2]: little effect
- reversal of A1 receptor mediated decrease in heart rate produced by adenosine (A1 receptor): completely reversed
- effect on contraction produced by N6-cyclohexyl-adenosine [3]: very little effect
- difference from VEH-VEH group (latency) (rats; 25 mg/kg i.p. plus scopolamine […]): did not differ significantly from the VEH--VEH group
- reversal of scopolamine-induced impairment of water maze learning (rats; 25 mg/kg i.p., scopolamine […]): partially reversed
- effect on scopolamine-induced learning impairment (rats): significantly antagonized
- synaptic transmission in the hippocampal slice (hippocampal CA1 neurons): enhanced synaptic transmission
- LTP stabilized level following tetanus (hippocampal CA1 neurons; 5 μM): 216%
- population spike before and after induction of LTP (hippocampal CA1 neurons): increased the basal population spike before and after induction of LTP
- time course of LTP following tetanus (hippocampal CA1 neurons): rose sharply and remained stable throughout the observation period

SMILES: CCCn1c(=O)c2[nH]c(C3Cc4ccccc4C3)nc2n(CCC)c1=O (racemic) [3,7-Dihydro-8-(2-indanyl)-1,3-dipropyl-1H-purine-2,6-dione]
- Ki (adenosine A2 receptor): 8.35 µM

SMILES: CCCn1c(=O)c2[nH]c(C(CC)c3ccccc3)nc2n(CCC)c1=O (racemic) [3,7-dihydro-8-[(±)-phenylpropyl]-1,3-dipropyl-1H-purine-2,6-dione]
- A2/A1 (adenosine A1 receptor [4]): 20

SMILES: CCCn1c(=O)c2[nH]c([C@@H](CC)c3ccccc3)nc2n(CCC)c1=O [3,7-Dihydro-8-[(S)-1-phenylpropyl]1,3-dipropyl-1H-purine-2,6-dione]
- Ki (adenosine A2 receptor): 0.848 µM
- A2/A1 (adenosine A1 receptor [4]): 14
- Ki (adenosine A1 receptor [5]): 0.0607 µM

SMILES: CCCn1c(=O)c2[nH]c(C3CCC(=O)C3)nc2n(CCC)c1=O (racemic) [KFM-19, reference compound]
- effect on scopolamine-induced learning impairment (rats): significantly antagonized
- synaptic transmission in the hippocampal slice (hippocampal CA1 neurons): enhanced synaptic transmission
- activity in other animal models of learning and memory [6]: reported to have activity

SMILES: CCCn1c(=O)c2[nH]c([C@H](CC)c3ccccc3)nc2n(CCC)c1=O [3,7-dihydro-8-[(R)-1-phenylpropyl]1,3-dipropyl-1H-purine-2,6-dione]
- Ki (adenosine A2 receptor): 3.51 µM
- difference from VEH-SCOP group (latency), block 3 (rats; 5 mg/kg i.p. plus scopolamine 1.2 mg/kg, p<0.05): differed from the VEH-SCOP group on block 3 (p<0.05)
- reversal of scopolamine-induced impairment (rats; 5 mg/kg i.p.): reversed the scopolamine-induced impairment
- difference from VEH-SCOP group (latency), blocks 2 and 3 (rats; 25 mg/kg i.p. plus scopolamine 1.2 mg/kg): differed from the VEH-SCOP group on blocks 2 and 3
- reversal of scopolamine-induced impairment (rats; 25 mg/kg i.p.): reversed the scopolamine-induced impairment
- difference from VEH-VEH group (latency) (rats; 5 and 25 mg/kg i.p. plus scopolamine 1.2 mg/kg): did not differ significantly from the VEH--VEH group
- effect on scopolamine-induced learning impairment (rats): significantly antagonized
- synaptic transmission in the hippocampal slice (hippocampal CA1 neurons): enhanced synaptic transmission
- LTP stabilized level following tetanus (hippocampal CA1 neurons; 2.5 μm): 270%
- population spike before and after induction of LTP (hippocampal CA1 neurons): increased the basal population spike before and after induction of LTP
- time course of LTP following tetanus (hippocampal CA1 neurons): rose sharply and remained stable throughout the observation period
- Ki (adenosine A1 receptor [4]): 0.0232 µM
- A2/A1 (adenosine A1 receptor [7]): 153
- A1 antagonist potency and selectivity (adenosine A1 receptor [8]): potent and selective A1 antagonists
